{"source": "PubChem BioAssay AID1259407", "about": "(Chemical Carcinogenesis Research Information System (CCRIS), 2018)", "test_system": "CCRIS mutagenicity, Ames/micronucleus/aberration tests", "test": "CCRIS mutagenicity studies", "key": {"[1]": {"details": "Test System: AMES SALMONELLA TYPHIMURIUM, Strain/Indicator: TA98, Metabolic Activation: HAMSTER, LIVER, S-9, AROCLOR 1254 (30%), Method: PREINCUBATION"}, "[2]": {"details": "Test System: AMES SALMONELLA TYPHIMURIUM, Strain/Indicator: TA98, Metabolic Activation: NONE, Method: PREINCUBATION"}, "[3]": {"details": "Test System: AMES SALMONELLA TYPHIMURIUM, Strain/Indicator: TA98, Metabolic Activation: RAT, LIVER, S-9, AROCLOR 1254 (30%), Method: PREINCUBATION"}, "[4]": {"details": "Test System: AMES SALMONELLA TYPHIMURIUM, Strain/Indicator: TA100, Metabolic Activation: HAMSTER, LIVER, S-9, AROCLOR 1254 (30%), Method: PREINCUBATION"}, "[5]": {"details": "Test System: AMES SALMONELLA TYPHIMURIUM, Strain/Indicator: TA100, Metabolic Activation: NONE, Method: PREINCUBATION"}, "[6]": {"details": "Test System: AMES SALMONELLA TYPHIMURIUM, Strain/Indicator: TA100, Metabolic Activation: RAT, LIVER, S-9, AROCLOR 1254 (30%), Method: PREINCUBATION"}}, "note": "Calls of active or inactive are those of the source. How the calls were made is not given here.", "data": [{"molecule": "OCc1cc2cccc3ccc4cc5ccccc5c1c4c32", "values": [{"measurement": "mutagenic call", "setting": "Test System: AMES SALMONELLA TYPHIMURIUM, Strain/Indicator: TA98, Metabolic Activation: NONE, Method: STANDARD PLATE", "value": "inactive; negative"}, {"measurement": "mutagenic call", "setting": "Test System: AMES SALMONELLA TYPHIMURIUM, Strain/Indicator: TA100, Metabolic Activation: NONE, Method: STANDARD PLATE", "value": "inactive; negative"}]}, {"molecule": "Cc1ccc2c(c1N)C(=O)c1ccccc1C2=O", "values": [{"measurement": "mutagenic call", "setting": "[1]", "value": "active; positive"}, {"measurement": "mutagenic call", "setting": "[2]", "value": "inactive; negative"}, {"measurement": "mutagenic call", "setting": "[3]", "value": "active; positive"}, {"measurement": "mutagenic call", "setting": "[4]", "value": "inactive; negative"}, {"measurement": "mutagenic call", "setting": "[5]", "value": "inactive; negative"}, {"measurement": "mutagenic call", "setting": "[6]", "value": "active; positive"}, {"measurement": "mutagenic call", "setting": "Test System: AMES SALMONELLA TYPHIMURIUM, Strain/Indicator: TA1537 R+, Metabolic Activation: NONE, Method: STANDARD PLATE", "value": "active; positive"}, {"measurement": "mutagenic call", "setting": "Test System: AMES SALMONELLA TYPHIMURIUM, Strain/Indicator: TA1537 R+, Metabolic Activation: RAT, LIVER, S-9, AROCLOR 1254, Method: STANDARD PLATE", "value": "active; positive"}, {"measurement": "mutagenic call", "setting": "Test System: MOUSE LYMPHOMA, Strain/Indicator: L5178Y (TK+/TK-), Metabolic Activation: NONE, Method: SUSPENSION/PLATE", "value": "active; positive"}]}, {"molecule": "O=[N+]([O-])c1ccc(O)c([N+](=O)[O-])c1", "values": [{"measurement": "mutagenic call", "setting": "End Point: IN VITRO CHROMOSOMAL ABERRATIONS, Test System: CHO CELLS, Metabolic Activation: NONE", "value": "active; positive"}, {"measurement": "mutagenic call", "setting": "End Point: IN VITRO CHROMOSOMAL ABERRATIONS, Test System: HUMAN PERIPHERAL LYMPHOCYTES, Metabolic Activation: NONE", "value": "active; positive"}, {"measurement": "mutagenic call", "setting": "End Point: IN VITRO CHROMOSOMAL ABERRATIONS, Test System: TK6 HUMAN LYMPHOBLASTS, Metabolic Activation: NONE", "value": "inactive; negative"}, {"measurement": "mutagenic call", "setting": "End Point: In vitro micronucleus, Test System: Mouse lymphoma L5178Y cells, Metabolic Activation: None", "value": "active; positive"}, {"measurement": "mutagenic call", "setting": "Test System: AMES SALMONELLA TYPHIMURIUM, Strain/Indicator: TA97, Metabolic Activation: HAMSTER, LIVER, S-9, AROCLOR 1254 (10%), Method: PREINCUBATION", "value": "inactive; negative"}, {"measurement": "mutagenic call", "setting": "Test System: AMES SALMONELLA TYPHIMURIUM, Strain/Indicator: TA97, Metabolic Activation: HAMSTER, LIVER, S-9, AROCLOR 1254 (30%), Method: PREINCUBATION", "value": "inactive; negative"}, {"measurement": "mutagenic call", "setting": "Test System: AMES SALMONELLA TYPHIMURIUM, Strain/Indicator: TA97, Metabolic Activation: NONE, Method: PREINCUBATION", "value": "inactive; negative"}, {"measurement": "mutagenic call", "setting": "Test System: AMES SALMONELLA TYPHIMURIUM, Strain/Indicator: TA97, Metabolic Activation: RAT, LIVER, S-9, AROCLOR 1254 (10%), Method: PREINCUBATION", "value": "inactive; negative"}, {"measurement": "mutagenic call", "setting": "Test System: AMES SALMONELLA TYPHIMURIUM, Strain/Indicator: TA97, Metabolic Activation: RAT, LIVER, S-9, AROCLOR 1254 (30%), Method: PREINCUBATION", "value": "inactive; negative"}, {"measurement": "mutagenic call", "setting": "Test System: AMES SALMONELLA TYPHIMURIUM, Strain/Indicator: TA98, Metabolic Activation: HAMSTER, LIVER, S-9, AROCLOR 1254 (10%), Method: PREINCUBATION", "value": "inactive; negative"}, {"measurement": "mutagenic call", "setting": "[1]", "value": "inactive; negative"}, {"measurement": "mutagenic call", "setting": "[2]", "value": "inactive; negative"}, {"measurement": "mutagenic call", "setting": "Test System: AMES SALMONELLA TYPHIMURIUM, Strain/Indicator: TA98, Metabolic Activation: RAT, LIVER, S-9, AROCLOR 1254 (10%), Method: PREINCUBATION", "value": "inactive; negative"}, {"measurement": "mutagenic call", "setting": "[3]", "value": "inactive; negative"}, {"measurement": "mutagenic call", "setting": "Test System: AMES SALMONELLA TYPHIMURIUM, Strain/Indicator: TA98, Metabolic Activation: RAT, LIVER, S-9, KANECHLOR 500, Method: PREINCUBATION", "value": "inactive; negative"}, {"measurement": "mutagenic call", "setting": "Test System: AMES SALMONELLA TYPHIMURIUM, Strain/Indicator: TA98, Metabolic Activation: RAT, LIVER, S-9, PHENOBARBITAL AND BETA-NAPHTHOFLAVONE, Method: PREINCUBATION", "value": "inactive; negative"}, {"measurement": "mutagenic call", "setting": "Test System: AMES SALMONELLA TYPHIMURIUM, Strain/Indicator: TA100, Metabolic Activation: HAMSTER, LIVER, S-9, AROCLOR 1254 (10%), Method: PREINCUBATION", "value": "inactive; negative"}, {"measurement": "mutagenic call", "setting": "[4]", "value": "inactive; negative"}, {"measurement": "mutagenic call", "setting": "[5]", "value": "inactive; negative"}, {"measurement": "mutagenic call", "setting": "Test System: AMES SALMONELLA TYPHIMURIUM, Strain/Indicator: TA100, Metabolic Activation: RAT, LIVER, S-9, AROCLOR 1254 (10%), Method: PREINCUBATION", "value": "inactive; negative"}, {"measurement": "mutagenic call", "setting": "[6]", "value": "inactive; negative"}, {"measurement": "mutagenic call", "setting": "Test System: AMES SALMONELLA TYPHIMURIUM, Strain/Indicator: TA100, Metabolic Activation: RAT, LIVER, S-9, KANECHLOR 500, Method: PREINCUBATION", "value": "inactive; negative"}, {"measurement": "mutagenic call", "setting": "Test System: AMES SALMONELLA TYPHIMURIUM, Strain/Indicator: TA100, Metabolic Activation: RAT, LIVER, S-9, PHENOBARBITAL AND BETA-NAPHTHOFLAVONE, Method: PREINCUBATION", "value": "inactive; negative"}, {"measurement": "mutagenic call", "setting": "Test System: AMES SALMONELLA TYPHIMURIUM, Strain/Indicator: TA102, Metabolic Activation: NONE, Method: PREINCUBATION", "value": "inactive; negative"}, {"measurement": "mutagenic call", "setting": "Test System: AMES SALMONELLA TYPHIMURIUM, Strain/Indicator: TA102, Metabolic Activation: RAT, LIVER, S-9, PHENOBARBITAL AND BETA-NAPHTHOFLAVONE, Method: PREINCUBATION", "value": "inactive; negative"}, {"measurement": "mutagenic call", "setting": "Test System: AMES SALMONELLA TYPHIMURIUM, Strain/Indicator: TA104, Metabolic Activation: NONE, Method: PREINCUBATION", "value": "inactive; negative"}, {"measurement": "mutagenic call", "setting": "Test System: AMES SALMONELLA TYPHIMURIUM, Strain/Indicator: TA104, Metabolic Activation: RAT, LIVER, S-9, PHENOBARBITAL AND BETA-NAPHTHOFLAVONE, Method: PREINCUBATION", "value": "inactive; negative"}, {"measurement": "mutagenic call", "setting": "Test System: AMES SALMONELLA TYPHIMURIUM, Strain/Indicator: TA1535, Metabolic Activation: HAMSTER, LIVER, S-9, AROCLOR 1254 (10%), Method: PREINCUBATION", "value": "inactive; negative"}, {"measurement": "mutagenic call", "setting": "Test System: AMES SALMONELLA TYPHIMURIUM, Strain/Indicator: TA1535, Metabolic Activation: HAMSTER, LIVER, S-9, AROCLOR 1254 (30%), Method: PREINCUBATION", "value": "inactive; negative"}, {"measurement": "mutagenic call", "setting": "Test System: AMES SALMONELLA TYPHIMURIUM, Strain/Indicator: TA1535, Metabolic Activation: RAT, LIVER, S-9, AROCLOR 1254 (10%), Method: PREINCUBATION", "value": "inactive; negative"}, {"measurement": "mutagenic call", "setting": "Test System: AMES SALMONELLA TYPHIMURIUM, Strain/Indicator: TA1535, Metabolic Activation: RAT, LIVER, S-9, AROCLOR 1254 (30%), Method: PREINCUBATION", "value": "inactive; negative"}, {"measurement": "mutagenic call", "setting": "Test System: AMES SALMONELLA TYPHIMURIUM, Strain/Indicator: TA1535, Metabolic Activation: RAT, LIVER, S-9, PHENOBARBITAL AND BETA-NAPHTHOFLAVONE, Method: PREINCUBATION", "value": "inactive; negative"}, {"measurement": "mutagenic call", "setting": "Test System: AMES SALMONELLA TYPHIMURIUM, Strain/Indicator: TA1537, Metabolic Activation: HAMSTER, LIVER, S-9, AROCLOR 1254 (30%), Method: PREINCUBATION", "value": "inactive; negative"}, {"measurement": "mutagenic call", "setting": "Test System: AMES SALMONELLA TYPHIMURIUM, Strain/Indicator: TA1537, Metabolic Activation: NONE, Method: PREINCUBATION", "value": "inactive; negative"}, {"measurement": "mutagenic call", "setting": "Test System: AMES SALMONELLA TYPHIMURIUM, Strain/Indicator: TA1537, Metabolic Activation: RAT, LIVER, S-9, AROCLOR 1254 (30%), Method: PREINCUBATION", "value": "inactive; negative"}, {"measurement": "mutagenic call", "setting": "Test System: AMES SALMONELLA TYPHIMURIUM, Strain/Indicator: TA1537, Metabolic Activation: RAT, LIVER, S-9, PHENOBARBITAL AND BETA-NAPHTHOFLAVONE, Method: PREINCUBATION", "value": "inactive; negative"}, {"measurement": "mutagenic call", "setting": "Test System: E. COLI, Strain/Indicator: WP2UVRA/PKM101, Metabolic Activation: NONE, Method: PREINCUBATION", "value": "inactive; negative"}, {"measurement": "mutagenic call", "setting": "Test System: E. COLI, Strain/Indicator: WP2UVRA/PKM101, Metabolic Activation: RAT, LIVER, S-9, PHENOBARBITAL AND BETA-NAPHTHOFLAVONE, Method: PREINCUBATION", "value": "inactive; negative"}, {"measurement": "mutagenic call", "setting": "Test System: E. COLI, Strain/Indicator: WP2UVRA, Metabolic Activation: NONE, Method: PREINCUBATION", "value": "inactive; negative"}, {"measurement": "mutagenic call", "setting": "Test System: E. COLI, Strain/Indicator: WP2UVRA, Metabolic Activation: RAT, LIVER, S-9, PHENOBARBITAL AND BETA-NAPHTHOFLAVONE, Method: PREINCUBATION", "value": "inactive; negative"}, {"measurement": "mutagenic call", "setting": "Test System: Mouse lymphoma, Strain/Indicator: L5178Y (tk+/tk-)/Trifluorothymidine, Metabolic Activation: None, Method: Microtiter", "value": "active; positive"}]}]}
